A word on the EC50: it is the concentration needed to bring the measured effect to its halfway point.

Experimental findings from patent publication US20240124491A1, “METHODS AND COMPOUNDS FOR TREATING FRIEDREICH'S ATAXIA” (Design Therapeutics, Inc., priority 2021, published 2024) are described below.

Each structure is given as a SMILES string. Bounds are passed on as bounds.

The assay concerns human FXN. The assay can be described thus: EC50 assay: FXN mRNA expression by qRT-PCR in GM15850 cells after 48 hrs compound treatment. The assay is classed as cell-based. The conditions noted are these: Homo sapiens, 48 hrs incubation, hFXN expression normalized to hGAPDH (qRT-PCR), read-out: EC50 WT (nM, 48 hr). The method, then: Cell culture: Cells were cultured in RPMI1640 medium+15% FBS. Cells were maintained at a density between 2e5/mL and 1e6/mL. Cells were centrifuged, resuspended in fresh medium, counted and plated at 150,000 cells per well in 100 uL in a non-coated, flat bottom tissue culture plate.
Compound treatment: 10 mM stock solution of FA GeneTAC was diluted 1:10 in DMSO followed by a 1:100 dilution in growth medium. Working solution was then further diluted to 10× desired final concentration of 150 nM. Compound was then diluted at a 1:3 ratio into growth medium containing 0.01% DMSO. 5-point, 3-fold dose response curve was generated. 11 μL of 1OX compound was added to wells containing 100 μL cell suspension of GM15850. 11 μL growth medium containing 0.01% DMSO was added to all wells not treated with FA GeneTAC. Cells were allowed to incubate for 48 hrs prior to cell lysis using guanidine isothiocyanate solution.
RNA isolation: Total RNA was isolated and purified in 384-well column filter plates using chaotropic salt.
qRT-PCR: qRT-PCR reactions were assembled using AgPath-ID reagents (Thermo Fisher) using 6 uL mastermix and 4 μL RNA. qRT-PCR TaqMan primer probe sets against human FXN (Assay ID Hs01075496_m1) and human GAPDH (Assay ID Hs00266705_g1) were used to measure the intended targets. qRT-PCR was run on the ThermoFisher QuantStudio 6 PRO instrument using the manufacturer's recommended cycling conditions.
Data analysis: qPCR data was analyzed using Thermo Fisher Design and Analysis software. Data was exported to Excel and hFXN expression was normalized to hGAPDH expression
A<100 nM; B is 100 nM to 500 nM; C>500 nM.
Take `Cc1cc(F)cc(C)c1Oc1ccc(C(C)(C)O)cc1-c1cn(C)c(=O)c2[nH]c(C(=O)Nc3ccc(OCCOCCOCCOCCOCCOCCOCCOCCOCCNC(=O)c4cc(NC(=O)c5nc(NC(=O)c6cc(NC(=O)c7ccc8nc(-c9nccn9C)[nH]c8c7)cn6C)cn5C)cn4C)cc3)cc12` [Compound 215, N-[5-({2-[(5-{[26-(4-{4-[2-(4-fluoro-2,6-dimethylphenoxy)-5-(2-hydroxypropan-2-yl)phenyl]-6-methyl-7-oxo-1H-pyrrolo[2,3-c]pyridine-2-amido}phenoxy)-3,6,9,12,15,18,21,24-octaoxahexacosan-1-yl]carbamoyl}-1-methylpyrrol-3-yl)carbamoyl]-1-methylimidazol-4-yl]carbamoyl)-1-methylpyrrol-3-yl]-2-(1-methylimidazol-2-yl)-3H-1,3-benzodiazole-5-carboxamide]: the EC50 is more than 500 nM.

Regarding `Cc1sc2c(c1C)C(c1ccc(Cl)cc1)=N[C@@H](CC(=O)Nc1ccc(N3CCC(N4CCN(CCOCCOCCOCCOCCNC(=O)CCNC(=O)c5nc(NC(=O)CCNC(=O)c6cc(NC(=O)c7nc(NC(=O)CCNC(=O)c8cc(NC(=O)c9nccn9C)cn8C)cn7C)cn6C)cn5C)CC4)CC3)cc1)c1nnc(C)n1-2` [Compound 10], the EC50 was less than 100 nM.

Turning to `Cc1sc2c(c1C)C(c1ccc(Cl)cc1)=N[C@@H](CC(=O)N1CCN(CCOCCOCCOCCOCCOCCOCCOCCOCCNC(=O)CCNC(=O)c3nc(NC(=O)CCNC(=O)c4cc(NC(=O)c5nc(NC(=O)CCNC(=O)c6cc(NC(=O)c7nccn7C)cn6C)cn5C)cn4C)cn3C)CC1)c1nnc(C)n1-2` [Compound 101], the EC50 is more than 500 nM.

Take `Cc1sc2c(c1C)C(c1ccc(Cl)cc1)=N[C@@H](CC(=O)N1CCN(C3CCN(CCOCCOCCOCCOCCC(=O)NCCCN(CCCNC(=O)CCNC(=O)c4nc(NC(=O)CCNC(=O)c5cc(NC(=O)c6nc(NC(=O)CCNC(=O)c7cc(NC(=O)c8nccn8C)cn7C)cn6C)cn5C)cn4C)CC(F)(F)F)CC3)CC1)c1nnc(C)n1-2` [Compound 68]: the concentration giving a half-maximal response (EC50) was less than 100 nM.

In the case of `Cc1sc2c(c1C)C(c1ccc(Cl)cc1)=N[C@@H](CC(=O)Nc1ccc(C#CC3CCN(CCOCCOCCOCCOCCNC(=O)CCNC(=O)c4nc(NC(=O)CCNC(=O)c5cc(NC(=O)c6nc(NC(=O)CCNC(=O)c7cc(NC(=O)c8nccn8C)cn7C)cn6C)cn5C)cn4C)CC3)cc1)c1nnc(C)n1-2` [Compound 13], the EC50 is less than 100 nM.

In the case of `Cc1sc2c(c1C)C(c1ccc(Cl)cc1)=N[C@@H](CC(=O)Nc1ccc(N3CCN(CC4CCN(CCOCCOCCOCCOCCNC(=O)CCNC(=O)c5nc(NC(=O)CCNC(=O)c6cc(NC(=O)c7nc(NC(=O)CCNC(=O)c8cc(NC(=O)c9nccn9C)cn8C)cn7C)cn6C)cn5C)CC4)CC3)cc1)c1nnc(C)n1-2` [Compound 6], the EC50 lay within 100 to 500 nM.

`Cc1sc2c(c1C)C(c1ccc(Cl)cc1)=N[C@@H](CC(=O)N[C@H]1CC[C@H](N(C)CCOCCOCCOCCN3CCN(CCOCCOCCOCCNC(=O)CCNC(=O)c4nc(NC(=O)CCNC(=O)c5cc(NC(=O)c6nc(NC(=O)CCNC(=O)c7cc(NC(=O)c8nccn8C)cn7C)cn6C)cn5C)cn4C)CC3)CC1)c1nnc(C)n1-2` [Compound 21]: the concentration giving a half-maximal response (EC50) was more than 500 nM.

`Cc1cc(F)cc(C)c1Oc1ccc(C(C)(C)O)cc1-c1cn(C)c(=O)c2[nH]c(C(=O)Nc3ccc(OCCOCCOCCOCCOCCOCCOCCOCCOCCNC(=O)CCNC(=O)c4nc(NC(=O)CCNC(=O)c5cc(NC(=O)c6nc(NC(=O)CCNC(=O)c7cc(NC(=O)c8nccn8C)c[nH]7)cn6C)c[nH]5)cn4C)cc3)cc12` [Compound 224, N-(5-{[2-({2-[(2-{[26-(4-{4-[2-(4-fluoro-2,6-dimethylphenoxy)-5-(2-hydroxypropan-2-yl)phenyl]-6-methyl-7-oxo-1H-pyrrolo[2,3-c]pyridine-2-amido}phenoxy)-3,6,9,12,15,18,21,24-octaoxahexacosan-1-yl]carbamoyl]ethyl)carbamoyl]-1-methylimidazol-4-yl]carbamoyl)ethyl]carbamoyl]-1H-pyrrol-3-yl)-1-methyl-4-(3-{[4-(1-methylimidazole-2-amido)-1H-pyrrol-2-yl]formamido]propanamido)imidazole-2-carboxamide]: the EC50 is less than 100 nM.

Consider `CCCCCCCCCCCCCCCC(=O)Nc1ccc(C2=N[C@@H](CC(=O)Nc3ccc(OCCOCCOCCOCCOCCOCCOCCOCCOCCNC(=O)CCNC(=O)c4nc(NC(=O)CCNC(=O)c5cc(NC(=O)c6nc(NC(=O)CCNC(=O)c7cc(NC(=O)c8nccn8C)cn7C)cn6C)cn5C)cn4C)cc3)c3nnc(C)n3-c3sc(C)c(C)c32)cc1` [Compound 204], for which the EC50 is more than 500 nM.

As to `Cc1cc(F)cc(C)c1Oc1ccc(C(C)(C)O)cc1-c1cn(C)c(=O)c2[nH]c(C(=O)NC3CCN(CC#CC#CC4CCN(CCOCCOCCOCCOCCOCCNC(=O)CCNC(=O)c5nc(NC(=O)CCNC(=O)c6cc(NC(=O)c7nc(NC(=O)CCNC(=O)c8cc(NC(=O)c9nccn9C)cn8C)cn7C)cn6C)cn5C)CC4)CC3)cc12` [Compound 158], the EC50 is less than 100 nM.

`Cc1sc2c(c1C)C(c1ccc(Cl)cc1)=N[C@@H](CC(=O)N1CC(C#CC#CC3CN(CCOCCOCCOCCOCCOCCOCCNC(=O)CCNC(=O)c4nc(NC(=O)CCNC(=O)c5cc(NC(=O)c6nc(NC(=O)CCNC(=O)c7cc(NC(=O)c8nccn8C)cn7C)cn6C)cn5C)cn4C)C3)C1)c1nnc(C)n1-2` [Compound 127]: the half-maximal effective concentration (EC50) was less than 100 nM.

With `Cc1sc2c(c1C)C(c1ccc(Cl)cc1)=N[C@@H](CC(=O)N1CC(N3CCN(CCOCCOCCOCCOCCOCCOCCNC(=O)CCNC(=O)c4nc(NC(=O)CCNC(=O)c5cc(NC(=O)c6nc(NC(=O)CCNC(=O)c7cc(NC(=O)c8nccn8C)cn7C)cn6C)cn5C)cn4C)CC3)C1)c1nnc(C)n1-2` [Compound 62], the EC50 is 100 to 500 nM.

On to `COc1nnc2ccc(N3CCC(c4ccc(OCCN5CCN(CCOCCOCCOCCOCCOCCOCCOCCOCCNC(=O)CCNC(=O)c6nc(NC(=O)CCNC(=O)c7cc(NC(=O)c8nc(NC(=O)CCNC(=O)c9cc(NC(=O)c%10nccn%10C)cn9C)cn8C)cn7C)cn6C)C(=O)[C@H]5C)cc4)CC3)nn12` [Compound 116], for which the concentration giving a half-maximal response (EC50) is more than 500 nM.

Take `Cc1sc2c(c1C)C(c1ccc(Cl)cc1)=N[C@@H](CC(=O)NC1CCN(CC#CC#CC3CCN(CCOCCOCCOCCOCCOCCOCCOCCNC(=O)CCNC(=O)c4nc(NC(=O)CCNC(=O)c5cc(NC(=O)c6nc(NC(=O)CCNC(=O)c7cc(NC(=O)c8nccn8C)cn7C)cn6C)cn5C)cn4C)CC3)CC1)c1nnc(C)n1-2` [Compound 157]: the EC50 is less than 100 nM.

As for `Cc1sc2c(c1C)C(c1ccc(Cl)cc1)=N[C@@H](CC(=O)N1CCC(C#CC#CCNC(=O)CCNC(=O)c3nc(NC(=O)CCNC(=O)c4cc(NC(=O)c5nc(NC(=O)CCNC(=O)c6cc(NC(=O)c7nccn7C)cn6C)cn5C)cn4C)cn3C)CC1)c1nnc(C)n1-2` [Compound 164], the 50% effective concentration (EC50) was more than 500 nM.

Take `Cc1sc2c(c1C)C(c1ccc(Cl)cc1)=N[C@@H](CC(=O)N1CCC(C#CC#CC3CCN(CCOCCOCCOCCOCCNC(=O)CCNC(=O)c4nc(NC(=O)CCNC(=O)c5cc(NC(=O)c6nc(NC(=O)CCNC(=O)c7cc(NC(=O)c8nccn8C)cn7C)cn6C)cn5C)cn4C)CC3)CC1)c1nnc(C)n1-2` [Compound 60]: the concentration for a half-maximal effect (EC50) was less than 100 nM.

For `Cc1sc2c(c1C)C(c1ccc(Cl)cc1)=N[C@@H](CC(=O)Nc1cncc(N3CCC(N4CCN(CCOCCOCCOCCOCCOCCOCCNC(=O)CCNC(=O)c5nc(NC(=O)CCNC(=O)c6cc(NC(=O)c7nc(NC(=O)CCNC(=O)c8cc(NC(=O)c9nccn9C)cn8C)cn7C)cn6C)cn5C)CC4)CC3)c1)c1nnc(C)n1-2` [Compound 125], the EC50 is less than 100 nM.
